Among the data in patent publication US20130309389A1, “GLYCOSIDE BLENDS” (CARGILL, INCORPORATED, priority 2010, published 2013) are Bitterness and Sweetness values, retold here.

The assay in a line: Trained sensory panel rating of sweetness intensity and bitterness intensity of glycoside solutions. Conditions: panel average; for Bitterness: scale 1-15 (caffeine standards); for Sweetness: scale 1-15 (sucrose standards). The assay is classed as in vivo, human. Here is the method: A 20 person sensory panel was trained to scale sweetness and bitterness. Reference tasting standards were prepared by dissolving respective standard material (sucrose for sweetness and caffeine for bitterness) into reverse osmosis water according to the scale values shown in Table 1 below.
The trained sensory panel evaluated pure and blended solutions of rebaudioside A, rebaudioside B, and rebaudioside D at ratios and concentrations shown in the tables and in FIGS. 1-4. Solutions were made in Evian® water. All solutions were heated to 47° C. for 10 minutes to ensure that all the glycoside material was completely dissolved. The solutions were allowed to cool to room temperature before serving to the panelists. Each solution was given a random 3-digit code and was served to the panelists in random order. Panelists dispensed 1 mL of each solution into their mouths from a pipette. The panelists were then asked to rate the “sweetness intensity” and “bitterness intensity” of the solutions and mark their responses on an un-anchored, 15 cm line ballot. The length of the line directly corresponded to the scale values (1-15) on which the participants were trained.
In order to prepare the panelists' palates, a control solution of commercial rebiana (300 ppm) was the first sample each panelist tasted during a sitting. In between testing samples, the panelists cleansed their palates with water and apple slices. The panelists also waited 5 minutes between each sample. The panelists' responses were measured, compiled, and averaged for each sample.
The figures show the concentration of the blend tested (ppm) as well as the ratio of one glycoside to another in the blend as a percentage. Each blend's sweetness and bitterness was measured by the trained panel. The blend's sweetness is measured as SEV.
Each blend was then compared to an isosweet concentration of the pure glycosides. This value represents the concentration of the pure glycoside needed to achieve the SEV value measured for the blend. Thus, if the value is greater than that of the blend, then a larger concentration of the pure glycoside would be needed to achieve the same sweetness as achieved by the blend (at the lower dosage). The tables also include an isosweet bitterness value for each pure glycoside. This value represents the intensity of bitterness measured for that concentration of pure glycoside. The concentration of the isosweet solution of rebaudioside A, rebaudioside B, or rebaudioside D and the bitterness of the isosweet solutions were calculated by a fit of the pure component sensory response (table 2) to standard psycho-sensory models.

Turning to `C=C1C[C@@]23CC[C@H]4[C@@](C)(CCC[C@@]4(C)C(=O)O)[C@@H]2CC[C@]1(O[C@@H]1O[C@H](CO)[C@@H](O)[C@H](O[C@@H]2O[C@H](CO)[C@@H](O)[C@H](O)[C@H]2O)[C@H]1O[C@@H]1O[C@H](CO)[C@@H](O)[C@H](O)[C@H]1O)C3` [Reb B, Rebaudioside B], the Bitterness runs as follows: (57 ppm in Evian water) 3.9; (114 ppm in Evian water) 4.2; (171 ppm in Evian water) 4.3; (286 ppm in Evian water) 5.0; (343 ppm in Evian water) 5.1; (400 ppm in Evian water) 5.8. Also, the Sweetness was determined as 1.8 (57 ppm in Evian water); 2.7 (114 ppm in Evian water); 3.6 (171 ppm in Evian water); 5.8 (286 ppm in Evian water); 6.5 (343 ppm in Evian water); 7.6 (400 ppm in Evian water).

With `C=C1C[C@@]23CC[C@H]4[C@@](C)(CCC[C@@]4(C)C(=O)O[C@@H]4O[C@H](CO)[C@@H](O)[C@H](O)[C@H]4O)[C@@H]2CC[C@]1(O[C@@H]1O[C@H](CO)[C@@H](O)[C@H](O[C@@H]2O[C@H](CO)[C@@H](O)[C@H](O)[C@H]2O)[C@H]1O[C@@H]1O[C@H](CO)[C@@H](O)[C@H](O)[C@H]1O)C3` [Reb A, Rebaudioside A], the Bitterness is listed as 4.2 (114 ppm in Evian water); 5.3 (229 ppm in Evian water); 6.6 (343 ppm in Evian water); 7.0 (457 ppm in Evian water); 8.4 (571 ppm in Evian water); 9.0 (800 ppm in Evian water). In addition, the Sweetness is listed as 3.1 (114 ppm in Evian water); 5.7 (229 ppm in Evian water); 7.4 (343 ppm in Evian water); 8.4 (457 ppm in Evian water); 9.2 (571 ppm in Evian water); 10.1 (800 ppm in Evian water).
